We go through two molecules from paper PMC2680961, “Homologous desensitization of signalling by the alpha (α) isoform of the human thromboxane A2 receptor: A specific role for nitric oxide signalling” (Biochimica et Biophysica Acta, 2007).

Changes are numbered by the printed parent chain.

In one assay the target is T1, TPα^S329,331A (Homo sapiens, UniProt P21731, S329A/S331A).
T1 construct: expressed in transfected cells
T1 sequence (P21731 1-343 S329A/S331A): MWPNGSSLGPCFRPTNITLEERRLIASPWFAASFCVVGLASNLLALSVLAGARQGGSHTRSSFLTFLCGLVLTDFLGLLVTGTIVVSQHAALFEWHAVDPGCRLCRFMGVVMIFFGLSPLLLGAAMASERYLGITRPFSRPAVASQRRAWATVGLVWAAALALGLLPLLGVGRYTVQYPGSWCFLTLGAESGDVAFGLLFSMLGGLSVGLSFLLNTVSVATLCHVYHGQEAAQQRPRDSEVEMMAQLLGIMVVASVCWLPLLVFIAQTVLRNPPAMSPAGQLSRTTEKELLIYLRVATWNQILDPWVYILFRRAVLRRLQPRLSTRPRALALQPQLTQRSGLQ
Description: [3H]SQ29,548 radioligand binding, Scatchard analysis, HEK.TPα^S329,331A. As for the experimental part: Cells were harvested by centrifugation at 500×g at 4 °C for 5 min and washed three times with ice-cold Ca^2+/Mg^2+-free phosphate-buffered saline (PBS). TP radioligand binding assays were carried out at 30 °C for 30 min in 100 μl reactions in the presence of 0–40 nM [^3H] […] Protein determinations were carried out using the Bradford assay.
Radioligand binding and Scatchard analysis data were analysed using GraphPad Prisim V4.0 programme (GraphPad Software Inc., San Diego CA, USA). Statistical analyses were carried out using the unpaired Student's t test using the Statworks Analysis Package. p-values ≤ 0.01 indicated statistically significant differences.

The target in the next assay is T2, TPα^Δ336 (Homo sapiens, UniProt P21731).
T2 construct: expressed in transfected cells
T2 sequence (P21731 1-335): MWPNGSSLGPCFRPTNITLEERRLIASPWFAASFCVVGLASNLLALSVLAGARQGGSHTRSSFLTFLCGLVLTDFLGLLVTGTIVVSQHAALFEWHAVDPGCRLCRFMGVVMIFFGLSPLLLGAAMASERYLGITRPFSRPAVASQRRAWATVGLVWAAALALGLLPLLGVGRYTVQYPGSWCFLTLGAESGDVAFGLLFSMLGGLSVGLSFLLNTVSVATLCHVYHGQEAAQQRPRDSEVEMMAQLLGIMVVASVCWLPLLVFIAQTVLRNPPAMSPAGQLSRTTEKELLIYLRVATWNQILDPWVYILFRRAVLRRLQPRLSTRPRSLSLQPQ
Description: Intracellular calcium mobilization, HEK.TPα^Δ336 cells. It is filed as cell-based. The settings on record: for Δ[Ca2+]i, U46619-induced: HEK.TPα^Δ336. The protocol: (§1) Measurement of intracellular calcium mobilization ([Ca^2+]i) in FURA2/AM preloaded HEK 293 cell lines (2 × 10^6 cells/dish), each transiently co-transfected with pADVA (10 μg), and pCMV:Gαq (25 μg), was carried out as previously described. To investigate the effect of GRK2/βARK1 on TP-mediated [Ca^2+]i mobilization, HEK.TPα or HEK.TPβ cells (2 × 10^6 cells/dish) were co-transfected with pADVA (10 μg), pCMV:Gαq (25 μg) along with pRK5:βARK1^495–689 (25 μg), encoding a dominant negative form of GRK2/βARK1[39]. Approximately 48 h post-transfection, cells were harvested by scraping, washed twice in ice-cold PBS and resuspended in HBSSHB (modified Ca^2+/Mg^2+-free Hank's buffered salt solution, containing 10 μM HEPES, pH 7.67, 0.1% bovine serum albumin (BSA)) buffer at 10^7 cells/ml and incubated in the dark with 5 μM FURA2/AM for 45 min at 37 °C. […] For each measurement of [Ca^2+]i mobilization, aliquots of cells were diluted to 0.825 × 10^6 cells/ml in HBSSHB, 1 mM CaCl2 and FURA2 fluorescence was recorded (2 ml aliquots of cells) at 37^ °C with gentle stirring with a Perkin Elmer-Cetus LS50-B spectrofluorometer at excitation wavelengths of 340 nm and 380 nm and emission wavelength of 510 nm, respectively.
Cells were stimulated with the TP agonist U46619 (1 μM) and changes in [Ca^2+]i mobilization were monitored as a function of time. To assess agonist-mediated homologous desensitization, cells (0.825 × 10^6 cells/ml; 2 ml per assay) were stimulated with 1 μM U46619 (Primary stimulation) or, as a control, with the vehicle for 4 min; thereafter, cells were collected by centrifugation (900×g, 5 min); were washed twice in 2 ml HBSSHB, 1 mM CaCl2; and finally resuspended in 2 ml HBSSHB,1 mM CaCl2 and were left to recover over various time intervals (ranging from 0 to 60 min); thereafter, cells re-stimulated with 1 μM U46619 (Secondary stimulation) and changes in [Ca^2+]i mobilization were monitored as a function of time. […]

A further assay addresses T3, TPα^S329A (Homo sapiens, UniProt P21731, S329A).
T3 construct: expressed in transfected cells
T3 sequence (P21731 1-343 S329A): T1 sequence (P21731 1-343 S329A/S331A) with A331S
Description: Intracellular calcium mobilization, HEK.TPα^S329A cells. The assay is classed as cell-based. As for the experimental part: as §1, with “GRK2/βARK1[39].” for “GRK2/βARK1[39]. Approximately 48 h post-transfection, cells were harvested by scraping, washed twice in ice-cold PBS and resuspended in HBSSHB (modified Ca^2+/Mg^2+-free Hank's buffered salt solution, containing 10 μM HEPES, pH 7.67, 0.1% bovine serum albumin (BSA)) buffer at 10^7 cells/ml and incubated in the dark with 5 μM FURA2/AM for 45 min at 37 °C.”
Cells were stimulated with the TP agonist U46619 (1 μM) and changes in [Ca^2+]i mobilization were monitored as a function of time. […]
The vehicle had no effect on U46619-mediated [Ca^2+]i mobilization. Calibration of the signal was performed in each sample by adding 0.2% Triton X-100 to obtain the maximal fluorescence ratio (Rmax) and then 1 mM EGTA to obtain the minimal fluorescence ratio (Rmin). […]

The mark [1] stands for this setting: secondary 1 μM U46619 at 15 min.

Turning to `O=C(O)CCC/C=C\C[C@@H]1[C@H](CNNC(=O)Nc2ccccc2)[C@H]2CC[C@@H]1O2` [SQ29,548], on TPα^S329,331A, the “Bmax (pmol/mg protein ± S.E.M.)” value came to 2.9 ± 0.19 pmol/mg protein.

Consider `CCCCC[C@H](O)/C=C/[C@@H]1[C@@H](C/C=C\CCCC(=O)O)[C@H]2CO[C@@H]1C2` [U46619], for which the “Δ[Ca2+]i, U46619-induced” value on TPα^Δ336 (primary 1 μM U46619 4 min) is listed as 240 ± 14 nM; on TPα^Δ336 (setting [1]), 50 ± 3.4 nM; at TPα^S329A (primary 1 μM U46619 4 min), 228 ± 7.7 nM; at TPα^S329A (setting [1]), 0 nM. Also, the “secondary U46619 [Ca2+]i response relative to primary response” value at TPα^Δ336 (TPα^Δ336) stood at 20%.
